pIC50: −log10 of the molar value. A value given as a limit tells only on which side of the number the result lay.

The term pIC50 denotes the negative decadic logarithm of the IC50, by convention in mol/L. A higher pIC50 goes with a low IC50.

Assay [1] addresses T1, Avi-KRAS G12D (1-169) GppNHp/RAF1 RBD-3xFLAG (52-151) (Homo sapiens, UniProt P01116, G12D).
T1 construct: Avi-KRAS G12D (1-169)
Kind of assay: Raf1-KRAS G12D-GppNHP disruption HTRF assay (Biological Example 1). Format: binding. The conditions noted are these: KRAS G12D, GppNHp-loaded; Table 11. An outline of the steps:
(§1)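 Compound disruption of KRAS-GppNHp/RAF1 RBD binding read by HTRF after two sequential 1 h room-temperature incubations (protein mix, then detection reagents), shaken at 700 rpm. Buffer Tris pH 7.5 with MgCl2, BSA, Tween and 10% DMSO; results given as percent activity relative to DMSO (100%).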
A general note: In TR-FRET formats the signal depends on donor and acceptor labels being close together.

Assay [2] deals with T2, Avi-KRAS G12R (1-169) GppNHp/RAF1 RBD-3xFLAG (52-151) (Homo sapiens, UniProt P01116, G12R).
T2 construct: Avi-KRAS G12R (1-169)
T2 sequence (P01116 1-169 isoform P01116-2 G12R): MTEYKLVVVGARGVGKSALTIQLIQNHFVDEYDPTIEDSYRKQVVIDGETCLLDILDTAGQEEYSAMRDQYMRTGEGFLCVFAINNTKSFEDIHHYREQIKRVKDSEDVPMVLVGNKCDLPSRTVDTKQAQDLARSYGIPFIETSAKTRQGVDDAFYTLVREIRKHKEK
Description: Raf1-KRAS G12R-GppNHP disruption HTRF assay (Biological Example 1). The assay is classed as binding. The conditions noted are these: KRAS G12R, GppNHp-loaded; Table 11. An outline of the steps:
as §1

Assay [3] concerns the target T3, Avi-KRAS G12V (1-169) GppNHp/RAF1 RBD-3xFLAG (52-151) (Homo sapiens, UniProt P01116, G12V).
T3 construct: Avi-KRAS G12V (1-169)
Description: Raf1-KRAS G12V-GppNHP disruption HTRF assay (Biological Example 1). The following applies: KRAS G12V, GppNHp-loaded; Table 11. The assay is classed as binding. An outline of the steps: as §1

For assay [4], the target named is T4, Avi-KRAS WT (1-169) GppNHp/RAF1 RBD-3xFLAG (52-151) (Homo sapiens, UniProt P01116).
T4 construct: Avi-KRAS WT (1-169)
T4 sequence (P01116 1-169 isoform P01116-2): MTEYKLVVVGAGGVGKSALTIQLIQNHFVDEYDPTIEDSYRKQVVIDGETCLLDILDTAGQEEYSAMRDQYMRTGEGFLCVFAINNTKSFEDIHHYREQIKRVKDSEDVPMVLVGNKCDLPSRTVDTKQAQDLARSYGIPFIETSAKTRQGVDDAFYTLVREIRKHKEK
Description: Raf1-KRAS WT-GppNHP disruption HTRF assay (Biological Example 1). The assay is classed as binding. The conditions noted are these: KRAS WT, GppNHp-loaded; Table 11. The procedure, abridged: as §1

Assay [5] deals with GP2d cells (KRAS G12D). Kind of assay: Cell-based pERK HTRF assay in GP2d cell (Biological Example 2). The conditions noted are these: GP2d (KRAS G12D) cells, pERK HTRF. The procedure, abridged: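 HTRF read-out of pERK (excitation 320 nm, emission 615 nm) after lysates sat 4–24 h at room temperature with Eu cryptate and d2 antibodies.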
The subject of assay [6] is SW620 cells (KRAS G12V). Kind of assay: Cell-based pERK HTRF assay in SW620 cell (Biological Example 4). The conditions noted are these: pERK HTRF. An outline of the steps:
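SW620 seeded in RPMI/10% FBS, next day dosed 4 h (top 1 μM, half-log, 9 pts, 0.25% DMSO). Lysed, pERK by d2/Eu cryptate HTRF, 4–24 h RT, 615 nm read.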

Where [7] appears, read: Homo sapiens, SW-620, SW620 (KRAS G12V) cells.

T1 sequence (P01116 1-169 isoform P01116-2 G12D): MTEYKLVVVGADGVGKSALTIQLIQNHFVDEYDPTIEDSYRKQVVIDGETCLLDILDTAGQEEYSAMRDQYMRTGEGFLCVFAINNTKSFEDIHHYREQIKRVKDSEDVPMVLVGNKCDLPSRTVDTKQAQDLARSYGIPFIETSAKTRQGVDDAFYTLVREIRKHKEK
T3 sequence (P01116 1-169 isoform P01116-2 G12V): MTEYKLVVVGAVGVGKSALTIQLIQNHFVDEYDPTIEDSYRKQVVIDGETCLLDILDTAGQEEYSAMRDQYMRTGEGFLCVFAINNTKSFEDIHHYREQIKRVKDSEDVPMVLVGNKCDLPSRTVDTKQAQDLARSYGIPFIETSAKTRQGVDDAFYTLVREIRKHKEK

On to `C[C@@]1(O)CCCN(c2nc(OC[C@@]34CCCN3C[C@H](F)C4)nc3c(F)c(-c4ccc(F)c5sc(N)c(C#N)c45)c(C(F)(F)F)cc23)C1` [Compound 224], for which the pIC50 in assay [1] was 6.00 to 7.00; in assay [2], 6.00 to 7.00; in assay [3] it was 6.00 to 7.00; in assay [4], 6.00 to 7.00; in assay [5] (GP2d) it was > 7.00; in assay [6] (setting [7]), > 7.00.

Regarding `CC(=O)N1CC[C@H](N(C)c2nc(OC[C@@H]3C[C@@H](F)CN3C)nc3c(F)c(-c4ccc(F)c5sc(N)c(C#N)c45)c(C(F)(F)F)cc23)[C@@H]1C` [Compound 226], the pIC50 in assay [1] is < 5.00; in assay [2], < 5.00; in assay [3] it was < 5.00; in assay [4], < 5.00; in assay [5] (GP2d), < 6.00; in assay [6] (setting [7]) it was < 6.00.

`CC(=O)N1CC[C@H](N(C)c2nc(OC[C@@H]3CC4(CC4)CN3C)nc3c(F)c(-c4ccc(F)c5sc(N)c(C#N)c45)c(C(F)(F)F)cc23)[C@@H]1C` [Compound 227]: the pIC50 in assay [1] was 5.00 to 6.00; in assay [2], < 5.00; in assay [3], < 5.00; in assay [4], < 5.00; in assay [5] (GP2d), 6.00 to 7.00; in assay [6] (setting [7]), 6.00 to 7.00.

`CC1(O)CCN(c2nc(OC[C@@]34CCCN3C[C@H](F)C4)nc3c(F)c(-c4ccc(F)c5sc(N)c(C#N)c45)c(C(F)(F)F)cc23)CC1` [Compound 228]: the pIC50 in assay [1] was 6.00 to 7.00; in assay [2] it was 5.00 to 6.00; in assay [3], 5.00 to 6.00; in assay [4], 6.00 to 7.00; in assay [5] (GP2d) it was 6.00 to 7.00; in assay [6] (setting [7]), 6.00 to 7.00.

On to `CC(=O)N1CCN(c2nc(OC[C@@]34CCCN3C[C@H](F)C4)nc3c(F)c(-c4ccc(F)c5sc(N)c(C#N)c45)c(C(F)(F)F)cc23)C[C@H]1C` [Compound 229], for which the pIC50 was 6.00 to 7.00 in assay [1]; 5.00 to 6.00 in assay [2]; 5.00 to 6.00 in assay [3]; 5.00 to 6.00 in assay [4]; > 7.00 in assay [5] (GP2d); > 7.00 in assay [6] (setting [7]).

With `CC(=O)N1CCN(c2nc(OC[C@@]34CCCN3C[C@H](F)C4)nc3c(F)c(-c4ccc(F)c5sc(N)c(C#N)c45)c(C(F)(F)F)cc23)[C@@H](C)C1` [Compound 230], the pIC50 is 6.00 to 7.00 in assay [1]; 5.00 to 6.00 in assay [2]; 5.00 to 6.00 in assay [3]; 6.00 to 7.00 in assay [4]; > 7.00 in assay [5] (GP2d); > 7.00 in assay [6] (setting [7]).

In the case of `N#Cc1c(N)sc2c(F)ccc(-c3c(C(F)(F)F)cc4c(N5CCCC6(CC(O)C6)C5)nc(OC[C@@]56CCCN5C[C@H](F)C6)nc4c3F)c12` (stereo partly drawn) [Compound 231], the negative logarithm of the IC50 (pIC50) in assay [1] was 5.00 to 6.00; in assay [2], 5.00 to 6.00; in assay [3], < 5.00; in assay [4] it was 5.00 to 6.00; in assay [5] it was 6.00 to 7.00; in assay [6] (SW620 (KRAS G12V) cells), 6.00 to 7.00.

On to `N#Cc1c(N)sc2c(F)ccc(-c3c(C(F)(F)F)cc4c(N5CCn6nccc6C5)nc(OC[C@@]56CCCN5C[C@H](F)C6)nc4c3F)c12` [Compound 233], for which the pIC50 in assay [1] was 6.00 to 7.00; in assay [2], 6.00 to 7.00; in assay [3], 5.00 to 6.00; in assay [4], 6.00 to 7.00; in assay [5] it was > 7.00; in assay [6] (SW620 (KRAS G12V) cells), > 7.00.

As for `C[C@H]1CCN1c1nc(OC[C@@]23CCCN2C[C@H](F)C3)nc2c(F)c(-c3ccc(F)c4sc(N)c(C#N)c34)c(C(F)(F)F)cc12` [Compound 235], the pIC50 in assay [1] is 6.00 to 7.00; in assay [2] it was 6.00 to 7.00; in assay [3], 6.00 to 7.00; in assay [4], 6.00 to 7.00; in assay [5] (GP2d), > 7.00; in assay [6] (setting [7]), > 7.00.

As to `N#Cc1c(N)sc2c(F)ccc(-c3c(C(F)(F)F)cc4c(N5CCC[C@H](O)C5)nc(OC[C@@]56CCCN5C[C@H](F)C6)nc4c3F)c12` [Compound 236], the pIC50 was 6.00 to 7.00 in assay [1]; 6.00 to 7.00 in assay [2]; 6.00 to 7.00 in assay [3]; 6.00 to 7.00 in assay [4]; > 7.00 in assay [5] (GP2d); > 7.00 in assay [6] (setting [7]).

For the compound `CC(=O)N1C[C@@H](F)[C@@H](N(C)c2nc(OC[C@@]34CCCN3C[C@H](F)C4)nc3c(F)c(-c4ccc(F)c5sc(N)c(C#N)c45)c(C(F)(F)F)cc23)C1` [Compound 237], the pIC50 is 6.00 to 7.00 in assay [1]; 6.00 to 7.00 in assay [2]; 6.00 to 7.00 in assay [3]; 6.00 to 7.00 in assay [4]; > 7.00 in assay [5] (GP2d); > 7.00 in assay [6] (setting [7]).

Regarding `CO[C@@H]1C[C@@H](COc2nc(N(C)[C@H]3CCN(C(C)=O)[C@H]3C)c3cc(C(F)(F)F)c(-c4ccc(F)c5sc(N)c(C#N)c45)c(F)c3n2)N(C)C1` [Compound 238], the pIC50 is < 5.00 in assay [1]; < 5.00 in assay [2]; < 5.00 in assay [3]; < 5.00 in assay [4]; < 6.00 in assay [5] (GP2d); < 6.00 in assay [6] (setting [7]).

On to `CC(=O)N1CC[C@H](N(C)c2nc(OC[C@@H]3CCCN3C)nc3c(F)c(-c4ccc(F)c5sc(N)c(C#N)c45)c(C(F)(F)F)cc23)[C@@H]1C` [Compound 239], for which the pIC50 in assay [1] was < 5.00; in assay [2], < 5.00; in assay [3], < 5.00; in assay [4], < 5.00; in assay [5] (GP2d) it was < 6.00; in assay [6] (setting [7]) it was < 6.00.

For the compound `C[C@H]1[C@@H](N(C)c2nc(OC[C@@]34CCCN3C[C@H](F)C4)nc3c(F)c(-c4ccc(F)c5sc(N)c(C#N)c45)c(C(F)(F)F)cc23)CCN1C(=O)CO` [Compound 240], the pIC50 is 5.00 to 6.00 in assay [1]; 5.00 to 6.00 in assay [2]; 5.00 to 6.00 in assay [3]; 5.00 to 6.00 in assay [4]; 6.00 to 7.00 in assay [5] (GP2d); < 6.00 in assay [6] (setting [7]).

For the compound `C[C@]1(O)CCCN(c2nc(OC[C@@]34CCCN3C[C@H](F)C4)nc3c(F)c(-c4ccc(F)c5sc(N)c(C#N)c45)c(C(F)(F)F)cc23)C1` [Compound 241], the pIC50 in assay [1] was 6.00 to 7.00; in assay [2], 6.00 to 7.00; in assay [3], 6.00 to 7.00; in assay [4], 6.00 to 7.00; in assay [5] (GP2d), > 7.00; in assay [6] (setting [7]), > 7.00.

Regarding `C[C@]1(O)CCN(c2nc(OC[C@@]34CCCN3C[C@H](F)C4)nc3c(F)c(-c4ccc(F)c5sc(N)c(C#N)c45)c(C(F)(F)F)cc23)C1` [Compound 242], the pIC50 in assay [1] is 6.00 to 7.00; in assay [2] it was 6.00 to 7.00; in assay [3] it was 6.00 to 7.00; in assay [4] it was 6.00 to 7.00; in assay [5] (GP2d), > 7.00; in assay [6] (setting [7]) it was 6.00 to 7.00.

As to `N#Cc1c(N)sc2c(F)ccc(-c3c(C(F)(F)F)cc4c(N5CCn6nncc6C5)nc(OC[C@@]56CCCN5C[C@H](F)C6)nc4c3F)c12` [Compound 243], the pIC50 in assay [1] is 6.00 to 7.00; in assay [2], 6.00 to 7.00; in assay [3], 6.00 to 7.00; in assay [4], 6.00 to 7.00; in assay [5] (GP2d), > 7.00; in assay [6] (setting [7]), > 7.00.

`CC1(O)COCCN(c2nc(OC[C@@]34CCCN3C[C@H](F)C4)nc3c(F)c(-c4ccc(F)c5sc(N)c(C#N)c45)c(C(F)(F)F)cc23)C1` (stereo partly drawn) [Compound 244]: the pIC50 in assay [1] is 6.00 to 7.00; in assay [2], 6.00 to 7.00; in assay [3], 6.00 to 7.00; in assay [4], 6.00 to 7.00; in assay [5] (GP2d) it was > 7.00; in assay [6] (setting [7]) it was > 7.00.

Take `C[C@H]1C[C@H](O)CCN1c1nc(OC[C@@]23CCCN2C[C@H](F)C3)nc2c(F)c(-c3ccc(F)c4sc(N)c(C#N)c34)c(C(F)(F)F)cc12` [Compound 246]: the pIC50 is 6.00 to 7.00 in assay [1]; 6.00 to 7.00 in assay [2]; 6.00 to 7.00 in assay [3]; 6.00 to 7.00 in assay [4]; > 7.00 in assay [5] (GP2d); > 7.00 in assay [6] (setting [7]).

With `CC(=O)N1C[C@@H](N(C)c2nc(OC[C@@]34CCCN3C[C@H](F)C4)nc3c(F)c(-c4ccc(F)c5sc(N)c(C#N)c45)c(C(F)(F)F)cc23)C[C@H]1CO` [Compound 247], the pIC50 in assay [1] is 6.00 to 7.00; in assay [2], 6.00 to 7.00; in assay [3], 6.00 to 7.00; in assay [4], 6.00 to 7.00; in assay [5] (GP2d), > 7.00; in assay [6] (setting [7]), 6.00 to 7.00.

Values taken from patent US20260042764A1, “COMPOSITIONS AND METHODS FOR INHIBITION OF KRAS” (TheRas, Inc., priority 2022, published 2026).
